In ChEMBL document CHEMBL1201862, “PubChem BioAssay data set” (2004):
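Following 48 hours of exposure in 96-well plates, responses at five concentrations were used to interpolate endpoints linearly. At the GI50, growth is halved.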 Activity calls are given as the source filed them. Cut-off read from the data, not from the text of the source: active = GI50 up to about 1.1 µM and inactive = higher.

Assays:
Experiment in all cases: NCI anticancer screen, dose series, 48 h
MOLT-4 = test system: MOLT-4
NCI-H460 = test system: NCI-H460
ACHN = test system: ACHN
KM12 = test system: KM12
SF-295 = test system: SF-295
OVCAR-5 = test system: OVCAR-5
RXF 393 = test system: RXF 393
RPMI-8226 = test system: RPMI-8226
DU-145 = test system: DU-145
M14 = test system: M14
A498 = test system: A498
HL-60 = test system: HL-60
A549 = test system: A549
SK-OV-3 = test system: SK-OV-3
CCRF-CEM = test system: CCRF-CEM
SK-MEL-28 = test system: SK-MEL-28
EKVX = test system: EKVX
MDA-N = test system: MDA-N
HOP-92 = test system: HOP-92
Hs-578T = test system: Hs-578T

| Structure (SMILES) | GI50 (MOLT-4) | GI50 (NCI-H460) | GI50 (ACHN) | GI50 (KM12) | GI50 (SF-295) | GI50 (OVCAR-5) | GI50 (RXF 393) | GI50 (RPMI-8226) | GI50 (DU-145) | GI50 (M14) | GI50 (A498) | GI50 (HL-60) | GI50 (A549) | GI50 (SK-OV-3) | GI50 (CCRF-CEM) | GI50 (SK-MEL-28) | GI50 (EKVX) | GI50 (MDA-N) | GI50 (HOP-92) | GI50 (Hs-578T) |
| --- | --- | --- | --- | --- | --- | --- | --- | --- | --- | --- | --- | --- | --- | --- | --- | --- | --- | --- | --- | --- |
| CCOC(=O)c1ccc(-c2cc(C)no2)[nH]1 | 42.1 µM (inactive) | 33.8 µM (inactive) | > 100 µM (inactive) | 31.8 µM (inactive) | > 100 µM (inactive) | > 100 µM (inactive) | > 100 µM (inactive) | > 100 µM (inactive) | > 100 µM (inactive) | > 100 µM (inactive) | 63.7 µM (inactive) | 67.5 µM (inactive) | 51.5 µM (inactive) | > 100 µM (inactive) | > 100 µM (inactive) | > 100 µM (inactive) | 41.7 µM (inactive) | 22 µM (inactive) | > 100 µM (inactive) |  |
| O=C(N/N=C/c1ccc([N+](=O)[O-])cc1)Nc1ccc(Br)cc1 | 36.4 µM (inactive) | > 100 µM (inactive) | 60.7 µM (inactive) | > 100 µM (inactive) | > 100 µM (inactive) | > 100 µM (inactive) | > 100 µM (inactive) | 28.1 µM (inactive) | 47.9 µM (inactive) | 45.2 µM (inactive) |  | 40.5 µM (inactive) | > 100 µM (inactive) | 68.2 µM (inactive) | 23.4 µM (inactive) | > 100 µM (inactive) | 99.1 µM (inactive) | 44.6 µM (inactive) | > 100 µM (inactive) | > 100 µM (inactive) |
| C/C(=C\CNc1ncnc2c1ncn2CCC#N)CO | > 100 µM (inactive) | > 100 µM (inactive) | > 100 µM (inactive) | > 100 µM (inactive) | > 100 µM (inactive) | > 100 µM (inactive) | > 100 µM (inactive) | > 100 µM (inactive) | > 100 µM (inactive) | > 100 µM (inactive) |  | > 100 µM (inactive) | > 100 µM (inactive) | > 100 µM (inactive) | > 100 µM (inactive) | > 100 µM (inactive) | > 100 µM (inactive) | > 100 µM (inactive) | > 100 µM (inactive) | > 100 µM (inactive) |
| CCc1n[nH]c(=O)n1CCCCCCCCn1c(CC)n[nH]c1=O | > 100 µM (inactive) | > 100 µM (inactive) | > 100 µM (inactive) | > 100 µM (inactive) | > 100 µM (inactive) | > 100 µM (inactive) | > 100 µM (inactive) | > 100 µM (inactive) |  | > 100 µM (inactive) |  |  | > 100 µM (inactive) | > 100 µM (inactive) | > 100 µM (inactive) |  | > 100 µM (inactive) | > 100 µM (inactive) | > 100 µM (inactive) | > 100 µM (inactive) |
| Cc1ccc(C(=O)/C=C2\Nc3ccccc3N=C2NC23CC4CC(CC(C4)C2)C3)cc1 | 7.8 µM (inactive) |  | > 10 µM (inactive) | > 10 µM (inactive) | > 10 µM (inactive) | > 10 µM (inactive) |  | > 10 µM (inactive) | > 10 µM (inactive) | > 10 µM (inactive) |  | > 10 µM (inactive) | > 10 µM (inactive) | > 10 µM (inactive) | 1 µM (active) | > 10 µM (inactive) |  | > 10 µM (inactive) | > 10 µM (inactive) | > 10 µM (inactive) |
| CC(C)NC(=O)OCCN=c1c2ccccc2ccc2ccccc12 | 24.4 µM (inactive) | 45.6 µM (inactive) | 43.1 µM (inactive) | 44.7 µM (inactive) | 38.2 µM (inactive) | 88.9 µM (inactive) | 36.8 µM (inactive) | > 10 µM (inactive) | 56.2 µM (inactive) | 36 µM (inactive) |  | 15.8 µM (inactive) | 29.3 µM (inactive) | 47.6 µM (inactive) | 21 µM (inactive) | 32.4 µM (inactive) | 35 µM (inactive) | 40.6 µM (inactive) | 27.2 µM (inactive) | 35.2 µM (inactive) |
| Cn1c(C(C#N)c2cc(Cl)ncn2)nc2ccccc21 (configuration not stated) | > 100 µM (inactive) | > 100 µM (inactive) | > 100 µM (inactive) | > 100 µM (inactive) | > 100 µM (inactive) | > 100 µM (inactive) | > 100 µM (inactive) | > 100 µM (inactive) | > 100 µM (inactive) | > 100 µM (inactive) | > 100 µM (inactive) |  | > 100 µM (inactive) | > 100 µM (inactive) |  | > 100 µM (inactive) | > 100 µM (inactive) | > 100 µM (inactive) | > 100 µM (inactive) |  |
| O=c1[nH]c(=O)n(C2CC(O)C(CO)O2)cc1/N=N/NCc1ccccc1 (configuration not stated) | > 100 µM (inactive) | > 100 µM (inactive) | > 100 µM (inactive) | > 100 µM (inactive) | 59 µM (inactive) | > 100 µM (inactive) | > 100 µM (inactive) |  | > 100 µM (inactive) | > 100 µM (inactive) |  | > 100 µM (inactive) | > 100 µM (inactive) | > 100 µM (inactive) | > 100 µM (inactive) | > 100 µM (inactive) | > 100 µM (inactive) | > 100 µM (inactive) |  | > 100 µM (inactive) |
| O=P(O)(O)c1ccc(-c2ccc(I)cc2)cc1 | > 100 µM (inactive) | > 100 µM (inactive) | > 100 µM (inactive) | > 100 µM (inactive) | > 10 µM (inactive) | > 100 µM (inactive) | 13.5 µM (inactive) | > 100 µM (inactive) | > 100 µM (inactive) | > 100 µM (inactive) |  | > 100 µM (inactive) | > 100 µM (inactive) | > 100 µM (inactive) | > 100 µM (inactive) | > 100 µM (inactive) | > 100 µM (inactive) | > 100 µM (inactive) |  | > 100 µM (inactive) |
| COC(=O)C(Nc1ccc(OC)cc1)c1ccccc1 (configuration not stated) | > 100 µM (inactive) | > 100 µM (inactive) | > 100 µM (inactive) | > 100 µM (inactive) | 89.3 µM (inactive) | > 100 µM (inactive) |  | 83.9 µM (inactive) | > 100 µM (inactive) | > 100 µM (inactive) |  |  | > 100 µM (inactive) |  | > 100 µM (inactive) | > 100 µM (inactive) | > 100 µM (inactive) | > 100 µM (inactive) |  | > 100 µM (inactive) |
| CCO/C=N/C1=C(C#N)C(c2ccc(OC)c(OC)c2)c2c(-c3ccccc3)nn(-c3ccccc3)c2O1 (configuration not stated) | 8.02 µM (inactive) | > 100 µM (inactive) | 13.2 µM (inactive) | 8.02 µM (inactive) | 11.1 µM (inactive) | 10.7 µM (inactive) | 12.2 µM (inactive) | 21.4 µM (inactive) | 14.6 µM (inactive) | 21.4 µM (inactive) |  | 3.21 µM (inactive) | 18.3 µM (inactive) | 21.2 µM (inactive) | 2.23 µM (inactive) | 15 µM (inactive) | 16.1 µM (inactive) | 18.7 µM (inactive) | 13.4 µM (inactive) | 20.5 µM (inactive) |
| COc1cc(/C=C2\C[C@H]3[C@@H]4CCc5cc(OCCN6CCCC6)ccc5[C@H]4CC[C@]3(C)C2=O)cc(OC)c1OC | 1.31 µM (inactive) | 1.76 µM (inactive) | 1.79 µM (inactive) | 1.69 µM (inactive) | 1.79 µM (inactive) | 1.67 µM (inactive) | 1.57 µM (inactive) | 1.66 µM (inactive) | 1.87 µM (inactive) | 1.67 µM (inactive) | 1.78 µM (inactive) |  | 1.69 µM (inactive) | 2.7 µM (inactive) |  |  | 2.39 µM (inactive) | 1.67 µM (inactive) |  |  |
| O=C(Nn1c(-c2ccccc2)nc2ccccc2c1=O)c1ccccn1 | > 100 µM (inactive) | > 100 µM (inactive) | > 100 µM (inactive) | 83.6 µM (inactive) | 98.9 µM (inactive) |  | 45.3 µM (inactive) | > 100 µM (inactive) | > 100 µM (inactive) | > 100 µM (inactive) | 15.4 µM (inactive) | 71.4 µM (inactive) | > 100 µM (inactive) | > 100 µM (inactive) | 41.5 µM (inactive) | > 100 µM (inactive) | > 100 µM (inactive) |  | 78 µM (inactive) | 27.5 µM (inactive) |
| CN(NC(=O)c1ccco1)C1=NCCCCN1 | > 100 µM (inactive) | > 100 µM (inactive) | > 100 µM (inactive) | > 100 µM (inactive) | > 100 µM (inactive) | > 100 µM (inactive) | > 100 µM (inactive) | > 100 µM (inactive) | > 100 µM (inactive) | > 100 µM (inactive) |  | > 100 µM (inactive) | > 100 µM (inactive) | > 100 µM (inactive) | > 100 µM (inactive) | > 100 µM (inactive) | > 100 µM (inactive) | > 100 µM (inactive) | > 100 µM (inactive) | > 100 µM (inactive) |
| CC(C)C1=CC23CCC4C(C)(C(=O)O)CCCC4(C)C2CC1C1C(=O)N(c2ccc(C(=O)O)cc2)C(=O)C13 (configuration not stated) | > 100 µM (inactive) | > 100 µM (inactive) | > 100 µM (inactive) | > 100 µM (inactive) | > 100 µM (inactive) |  | > 100 µM (inactive) | > 100 µM (inactive) | > 100 µM (inactive) | > 100 µM (inactive) |  | > 100 µM (inactive) | > 100 µM (inactive) | > 100 µM (inactive) |  | > 100 µM (inactive) | > 100 µM (inactive) | > 100 µM (inactive) | > 100 µM (inactive) | > 100 µM (inactive) |
| CCC[C@H]1C(=O)N=C(N)N1C(=O)OCc1ccccc1 | > 100 µM (inactive) | > 100 µM (inactive) | > 100 µM (inactive) | > 100 µM (inactive) | > 100 µM (inactive) | > 100 µM (inactive) | > 100 µM (inactive) | > 100 µM (inactive) |  |  | > 100 µM (inactive) | > 100 µM (inactive) |  |  |  | > 100 µM (inactive) | > 100 µM (inactive) | > 100 µM (inactive) |  | > 100 µM (inactive) |
